From patent US9169254B2, “Spiroimidazolone derivative” (Chugai Seiyaku Kabushiki Kaisha, priority 2009, dated 2015)

Target: T1, human PTH1 receptor (Homo sapiens, UniProt Q03431)
T1 sequence (Q03431 27-593): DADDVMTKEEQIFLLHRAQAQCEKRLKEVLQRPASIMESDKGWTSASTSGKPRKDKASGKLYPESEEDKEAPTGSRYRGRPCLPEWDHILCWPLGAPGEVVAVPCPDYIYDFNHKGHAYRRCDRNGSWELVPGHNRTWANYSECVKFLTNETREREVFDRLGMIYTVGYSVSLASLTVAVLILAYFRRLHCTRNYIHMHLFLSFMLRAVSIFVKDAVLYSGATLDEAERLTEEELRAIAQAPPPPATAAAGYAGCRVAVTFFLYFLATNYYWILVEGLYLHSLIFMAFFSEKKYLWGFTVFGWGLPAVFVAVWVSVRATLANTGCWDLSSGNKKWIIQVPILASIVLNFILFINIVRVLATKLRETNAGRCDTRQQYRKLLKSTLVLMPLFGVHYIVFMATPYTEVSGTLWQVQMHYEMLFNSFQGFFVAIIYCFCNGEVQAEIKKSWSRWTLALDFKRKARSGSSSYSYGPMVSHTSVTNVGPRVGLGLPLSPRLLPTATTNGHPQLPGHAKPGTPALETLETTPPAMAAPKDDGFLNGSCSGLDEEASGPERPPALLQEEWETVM
Assay: In vitro cAMP signal activity in HKRK-B7 cells (LLC-PK1 cells overexpressing the human PTH1 receptor)
Format: cell-based
Settings: HKRK-B7 cells; compound at 1×10^−3 M; cAMP produced as percentage of that produced by hPTH(1-34) at 100 nM

Row | Compound | cAMP production activity (%)
1 | Cc1cc(C(=O)N2CC[C@@H](O)C2)ccc1CCS(=O)(=O)N1CCC2(CC1)N=C(c1cccc(C(F)(F)F)c1)NC2=O [Compound 355, 8-{2-[4-((R)-3-hydroxy-pyrrolidine-1-carbonyl)-2-methyl-phenyl]-ethanesulfonyl}-2-(3-trifluoromethyl-phenyl)-1,3,8-triaza-spiro[4.5]dec-1-en-4-one] | 84
2 | Cc1cc(C(=O)N2CCC[C@H]2CO)ccc1CCS(=O)(=O)N1CCC2(CC1)N=C(c1cccc(C(F)(F)F)c1)NC2=O [Compound 356, 8-{2-[4-((S)-2-hydroxymethyl-pyrrolidine-1-carbonyl)-2-methyl-phenyl]-ethanesulfonyl}-2-(3-trifluoromethyl-phenyl)-1,3,8-triaza-spiro[4.5]dec-1-en-4-one] | 78
3 | Cc1cc(C(=O)N2CCC(CCO)CC2)ccc1CCS(=O)(=O)N1CCC2(CC1)N=C(c1cccc(C(F)(F)F)c1)NC2=O [Compound 357, 8-(2-{4-[4-(2-hydroxy-ethyl)-piperidine-1-carbonyl]-2-methyl-phenyl}-ethanesulfonyl)-2-(3-trifluoromethyl-phenyl)-1,3,8-triaza-spiro[4.5]dec-1-en-4-one] | 78
4 | Cc1noc(C2CCN(C(=O)c3ccc(CCS(=O)(=O)N4CCC5(CC4)N=C(c4cccc(C(F)(F)F)c4)NC5=O)c(C)c3)CC2)n1 [Compound 358, 8-(2-{2-methyl-4-[4-(3-methyl-[1,2,4]oxadiazol-5-yl)-piperidine-1-carbonyl]-phenyl}-ethanesulfonyl)-2-(3-trifluoromethyl-phenyl)-1,3,8-triaza-spiro[4.5]dec-1-en-4-one] | 71
5 | Cc1cc(C(=O)N2CCN(c3ncccn3)CC2)ccc1CCS(=O)(=O)N1CCC2(CC1)N=C(c1cccc(C(F)(F)F)c1)NC2=O [Compound 359, 8-{2-[2-methyl-4-(4-pyrimidin-2-yl-piperazine-1-carbonyl)-phenyl]-ethanesulfonyl}-2-(3-trifluoromethyl-phenyl)-1,3,8-triaza-spiro[4.5]dec-1-en-4-one] | 65
6 | Cc1cc(C(=O)N2CCN(S(=O)(=O)N(C)C)CC2)ccc1CCS(=O)(=O)N1CCC2(CC1)N=C(c1cccc(C(F)(F)F)c1)NC2=O [Compound 360, 4-(3-methyl-4-{2-[4-oxo-2-(3-trifluoromethyl-phenyl)-1,3,8-triaza-spiro[4.5]dec-1-ene-8-sulfonyl]-ethyl}-benzoyl)-piperazine-1-sulfonic acid dimethylamide] | 62
7 | Cc1cc(C(=O)N2CCN(c3ccccn3)CC2)ccc1CCS(=O)(=O)N1CCC2(CC1)N=C(c1cccc(C(F)(F)F)c1)NC2=O [Compound 361, 8-{2-[2-methyl-4-(4-pyridin-2-yl-piperazine-1-carbonyl)-phenyl]-ethanesulfonyl}-2-(3-trifluoromethyl-phenyl)-1,3,8-triaza-spiro[4.5]dec-1-en-4-one] | 82
8 | Cc1cc(C(=O)N2CCN(CCOCCO)CC2)ccc1CCS(=O)(=O)N1CCC2(CC1)N=C(c1cccc(C(F)(F)F)c1)NC2=O [Compound 362, 8-[2-(4-{4-[2-(2-hydroxy-ethoxy)-ethyl]-piperazine-1-carbonyl}-2-methyl-phenyl)-ethanesulfonyl]-2-(3-trifluoromethyl-phenyl)-1,3,8-triaza-spiro[4.5]dec-1-en-4-one] | 97
9 | Cc1cc(C(=O)N2CCN(CCN3CCOCC3)CC2)ccc1CCS(=O)(=O)N1CCC2(CC1)N=C(c1cccc(C(F)(F)F)c1)NC2=O [Compound 363, 8-(2-{2-methyl-4-[4-(2-morpholin-4-yl-ethyl)-piperazine-1-carbonyl]-phenyl}-ethanesulfonyl)-2-(3-trifluoromethyl-phenyl)-1,3,8-triaza-spiro[4.5]dec-1-en-4-one] | 67
10 | Cc1cc(C(=O)N2CCN(c3nccs3)CC2)ccc1CCS(=O)(=O)N1CCC2(CC1)N=C(c1cccc(C(F)(F)F)c1)NC2=O [Compound 364, 8-{2-[2-methyl-4-(4-thiazol-2-yl-piperazine-1-carbonyl)-phenyl]-ethanesulfonyl}-2-(3-trifluoromethyl-phenyl)-1,3,8-triaza-spiro[4.5]dec-1-en-4-one] | 78
11 | Cc1cc(C(=O)N2CCC(F)(F)CC2)ccc1CCS(=O)(=O)N1CCC2(CC1)N=C(c1cccc(C(F)(F)F)c1)NC2=O [Compound 365, 8-{2-[4-(4,4-difluoro-piperidine-1-carbonyl)-2-methyl-phenyl]-ethanesulfonyl}-2-(3-trifluoromethyl-phenyl)-1,3,8-triaza-spiro[4.5]dec-1-en-4-one] | 81
12 | Cc1cc(C(=O)N2CCN(CCCO)CC2)ccc1CCS(=O)(=O)N1CCC2(CC1)N=C(c1cccc(C(F)(F)F)c1)NC2=O [Compound 366, 8-(2-{4-[4-(3-hydroxy-propyl)-piperazine-1-carbonyl]-2-methyl-phenyl}-ethanesulfonyl)-2-(3-trifluoromethyl-phenyl)-1,3,8-triaza-spiro[4.5]dec-1-en-4-one] | 85
13 | Cc1cc(C(=O)N2CCC[C@H]2C(N)=O)ccc1CCS(=O)(=O)N1CCC2(CC1)N=C(c1cccc(C(F)(F)F)c1)NC2=O [Compound 367, (S)-1-(3-methyl-4-{2-[4-oxo-2-(3-trifluoromethyl-phenyl)-1,3,8-triaza-spiro[4.5]dec-1-ene-8-sulfonyl]-ethyl}-benzoyl)-pyrrolidine-2-carboxylic acid amide] | 50
14 | Cc1cc(C(=O)N2CC(F)(F)C(F)(F)C2)ccc1CCS(=O)(=O)N1CCC2(CC1)N=C(c1cccc(C(F)(F)F)c1)NC2=O [Compound 368, 8-{2-[2-methyl-4-(3,3,4,4-tetrafluoro-pyrrolidine-1-carbonyl)-phenyl]-ethanesulfonyl}-2-(3-trifluoromethyl-phenyl)-1,3,8-triaza-spiro[4.5]dec-1-en-4-one] | 38

Results, then the compound that gave them:

Row | cAMP production activity (%) | Compound
15 | 43 | Cc1cc(C(=O)N2CCC[C@@H]2C(N)=O)ccc1CCS(=O)(=O)N1CCC2(CC1)N=C(c1cccc(C(F)(F)F)c1)NC2=O [Compound 369, (R)-1-(3-methyl-4-{2-[4-oxo-2-(3-trifluoromethyl-phenyl)-1,3,8-triaza-spiro[4.5]dec-1-ene-8-sulfonyl]-ethyl}-benzoyl)-pyrrolidine-2-carboxylic acid amide]
16 | 66 | Cc1cc(C(=O)N2CC[C@H](O)C2)ccc1CCS(=O)(=O)N1CCC2(CC1)N=C(c1cccc(C(F)(F)F)c1)NC2=O [Compound 370, 8-{2-[4-((S)-3-hydroxy-pyrrolidine-1-carbonyl)-2-methyl-phenyl]-ethanesulfonyl}-2-(3-trifluoromethyl-phenyl)-1,3,8-triaza-spiro[4.5]dec-1-en-4-one]
17 | 72 | Cc1cc(C(=O)N2CCC[C@@H]2CO)ccc1CCS(=O)(=O)N1CCC2(CC1)N=C(c1cccc(C(F)(F)F)c1)NC2=O [Compound 371, 8-{2-[4-((R)-2-hydroxymethyl-pyrrolidine-1-carbonyl)-2-methyl-phenyl]-ethanesulfonyl}-2-(3-trifluoromethyl-phenyl)-1,3,8-triaza-spiro[4.5]dec-1-en-4-one]
18 | 51 | Cc1cc(C(=O)N2CC[C@H](N(C)C)C2)ccc1CCS(=O)(=O)N1CCC2(CC1)N=C(c1cccc(C(F)(F)F)c1)NC2=O [Compound 372, 8-{2-[4-((S)-3-dimethylamino-pyrrolidine-1-carbonyl)-2-methyl-phenyl]-ethanesulfonyl}-2-(3-trifluoromethyl-phenyl)-1,3,8-triaza-spiro[4.5]dec-1-en-4-one]
19 | 70 | Cc1cc(C(=O)N2CCN(C(C)(C)C)CC2)ccc1CCS(=O)(=O)N1CCC2(CC1)N=C(c1cccc(C(F)(F)F)c1)NC2=O [Compound 373, 8-{2-[4-(4-tert-butyl-piperazine-1-carbonyl)-2-methyl-phenyl]-ethanesulfonyl}-2-(3-trifluoromethyl-phenyl)-1,3,8-triaza-spiro[4.5]dec-1-en-4-one]
20 | 79 | Cc1cc(C(=O)N2CCN(CCCN(C)C)CC2)ccc1CCS(=O)(=O)N1CCC2(CC1)N=C(c1cccc(C(F)(F)F)c1)NC2=O [Compound 374, 8-(2-{4-[4-(3-dimethylamino-propyl)-piperazine-1-carbonyl]-2-methyl-phenyl}-ethanesulfonyl)-2-(3-trifluoromethyl-phenyl)-1,3,8-triaza-spiro[4.5]dec-1-en-4-one]
21 | 57 | Cc1cc(C(=O)N2CCN(c3ccc(F)cc3)CC2)ccc1CCS(=O)(=O)N1CCC2(CC1)N=C(c1cccc(C(F)(F)F)c1)NC2=O [Compound 375, 8-(2-{4-[4-(4-fluoro-phenyl)-piperazine-1-carbonyl]-2-methyl-phenyl}-ethanesulfonyl)-2-(3-trifluoromethyl-phenyl)-1,3,8-triaza-spiro[4.5]dec-1-en-4-one]
22 | 74 | Cc1cc(C(=O)N2CCN(C(C)C)CC2)ccc1CCS(=O)(=O)N1CCC2(CC1)N=C(c1cccc(C(F)(F)F)c1)NC2=O [Compound 376, 8-{2-[4-(4-isopropyl-piperazine-1-carbonyl)-2-methyl-phenyl]-ethanesulfonyl}-2-(3-trifluoromethyl-phenyl)-1,3,8-triaza-spiro[4.5]dec-1-en-4-one]
